Laboratory results as given in US20070155757A1, “Use of pyrimidine compounds in the preparation of parasiticides” (priority 2004, published 2007).

| melting point | Compound |
| --- | --- |
| 110 to 112 °C | Nc1c(Oc2cccc(F)c2)ncnc1Oc1cccc(F)c1 [Compound 1.4, 4,6-bis-(3-fluorophenoxy)-pyrimidin-5-ylamine] |
| 155 to 156 °C | Cc1cc(Oc2ncnc(Oc3ccc(F)c(C)c3)c2N)ccc1F [Compound 1.20, 4,6-bis-(4-fluoro-3-methylphenoxy)-pyrimidin-5-ylamine] |
| 122 to 124 °C | NC(=O)Cc1c(Oc2ccc(F)c(C(F)(F)F)c2)ncnc1Oc1ccc(F)c(C(F)(F)F)c1 [Compound 1.29, [4,6-bis-(4-fluoro-3-(trifluoromethyl)phenoxy)]-pyrimidin-5-yl-acetamide] |
